From the NIST ThermoML archive (doi:10.1016/j.jct.2013.02.022)

Key:
[1] = refractive index (Na D-line) (dimensionless); conditions: 101.33 kPa, Liquid, Standard Abbe refractometry
[2] = Liquid; for mass density: 101 kPa, Vibrating tube method; for vapor or sublimation pressure: Ebulliometric method (Recirculating still)
[3] = xn = mol fraction of the nth substance listed; conditions: 101 kPa, Liquid, Vibrating tube method
[4] = refractive index (Na D-line) (dimensionless); xn = mol fraction of the nth substance listed; conditions: 101 kPa, Liquid, Standard Abbe refractometry

CCCC(=O)[O-].C[NH2+]CCO [N-methyl-2-hydroxyethylammonium butanoate]
Conditions | mass density, [2] [kg/m3] | refractive index, [1]
288.15 K | 1046 | 1.4579
293.15 K | 1042.6 | –
298.15 K | 1039.2 | –
303.15 K | 1035.9 | 1.4534
308.15 K | 1032.5 | –
313.15 K | – | 1.4504
313.16 K | 1029.1 | –
318.16 K | 1025.7 | –
323.16 K | 1022.3 | –

CCCC(=O)[O-].C[NH2+]CCO [N-methyl-2-hydroxyethylammonium butanoate] + CCCOC(C)=O
Conditions | mass density, [3] [kg/m3] | refractive index, [4]
308.15 K, x2 = 0 | 1032.53 | –
308.15 K, x2 = 0.0785 | 1016.82 | –
308.15 K, x2 = 0.4177 | 981.77 | –
308.15 K, x2 = 0.9454 | 884.44 | –
308.16 K, x2 = 0.1247 | 1013.03 | –
308.16 K, x2 = 0.207 | 1003.47 | –
308.16 K, x2 = 0.3035 | 993.9 | –
308.16 K, x2 = 0.5088 | 968.89 | –
308.16 K, x2 = 0.6042 | 952.99 | –
308.16 K, x2 = 0.696 | 936.16 | –
308.16 K, x2 = 0.7939 | 917.53 | –
308.16 K, x2 = 0.8936 | 896.61 | –
313.15 K, x2 = 0 | – | 1.4504
313.15 K, x2 = 0.0785 | 1013.32 | 1.4483
313.15 K, x2 = 0.1247 | – | 1.4457
313.15 K, x2 = 0.207 | – | 1.4417
313.15 K, x2 = 0.3035 | 989.89 | 1.4365
313.15 K, x2 = 0.4177 | 977.59 | 1.4288
313.15 K, x2 = 0.5088 | – | 1.4222
313.15 K, x2 = 0.6042 | – | 1.4146
313.15 K, x2 = 0.696 | 931.3 | 1.4068
313.15 K, x2 = 0.7939 | – | 1.3991
313.15 K, x2 = 0.8936 | – | 1.387
313.15 K, x2 = 0.9454 | – | 1.3809
313.16 K, x2 = 0 | 1029.14 | –
313.16 K, x2 = 0.1247 | 1009.37 | –
313.16 K, x2 = 0.207 | 999.76 | –
313.16 K, x2 = 0.5088 | 964.73 | –
313.16 K, x2 = 0.6042 | 948.38 | –
313.16 K, x2 = 0.7939 | 912.41 | –
313.16 K, x2 = 0.8936 | 891 | –
313.16 K, x2 = 0.9454 | 878.87 | –
318.15 K, x2 = 0.0785 | 1009.82 | –
318.15 K, x2 = 0.207 | 996.08 | –
318.15 K, x2 = 0.4177 | 973.39 | –
318.15 K, x2 = 0.696 | 926.41 | –
318.15 K, x2 = 0.7939 | 907.24 | –
318.16 K, x2 = 0 | 1025.72 | –
318.16 K, x2 = 0.1247 | 1005.67 | –
318.16 K, x2 = 0.3035 | 985.85 | –
318.16 K, x2 = 0.5088 | 960.4 | –
318.16 K, x2 = 0.6042 | 943.75 | –
318.16 K, x2 = 0.8936 | 885.74 | –
318.16 K, x2 = 0.9454 | 873.25 | –
323.15 K, x2 = 0.1247 | 1001.94 | –
323.15 K, x2 = 0.207 | 992.3 | –
323.15 K, x2 = 0.5088 | 956.04 | –
323.15 K, x2 = 0.6042 | 939.06 | –
323.15 K, x2 = 0.696 | 921.47 | –
323.16 K, x2 = 0 | 1022.26 | –
323.16 K, x2 = 0.0785 | 1006.34 | –
323.16 K, x2 = 0.3035 | 981.79 | –
323.16 K, x2 = 0.4177 | 969.14 | –
323.16 K, x2 = 0.7939 | 901.89 | –
323.16 K, x2 = 0.8936 | 880 | –
323.16 K, x2 = 0.9454 | 867.59 | –

CCOC(C)=O [ethyl acetate]
Conditions | mass density, 298.15 K [kg/m3] | mass density, 303.15 K [kg/m3] | mass density, 308.15 K [kg/m3] | mass density, 313.15 K [kg/m3] | mass density, 318.16 K [kg/m3] | mass density, 323.15 K [kg/m3] | refractive index, 303.15 K | vapor or sublimation pressure, 349.8 K [kPa]
[1] | – | – | – | – | – | – | 1.3672 | –
[2] | 894.9 | 888.76 | 882.58 | 876.34 | 870.06 | 863.73 | – | 101.3

CCOC(C)=O [ethyl acetate] + CCCC(=O)[O-].C[NH2+]CCO
x1 = 1
Conditions | mass density, 303.15 K [kg/m3] | mass density, 308.15 K [kg/m3] | mass density, 313.15 K [kg/m3] | mass density, 318.16 K [kg/m3] | mass density, 323.15 K [kg/m3] | refractive index, 303.15 K
[3] | 888.76 | 882.58 | 876.34 | 870.06 | 863.73 | –
[4] | – | – | – | – | – | 1.3672

COC(C)=O [methyl ethanoate]
Conditions | mass density, 288.15 K [kg/m3] | mass density, 293.14 K [kg/m3] | mass density, 298.14 K [kg/m3] | mass density, 303.14 K [kg/m3] | mass density, 308.14 K [kg/m3] | mass density, 313.14 K [kg/m3] | mass density, 318.14 K [kg/m3] | mass density, 323.15 K [kg/m3] | refractive index, 288.15 K | vapor or sublimation pressure, 330.1 K [kPa]
[1] | – | – | – | – | – | – | – | – | 1.365 | –
[2] | 939.9 | 933.4 | 926.8 | 920.2 | 913.5 | 906.7 | 899.9 | 893 | – | 101.3

COC(C)=O [methyl ethanoate] + CCCC(=O)[O-].C[NH2+]CCO
x1 = 1
Conditions | mass density, 288.15 K [kg/m3] | mass density, 293.14 K [kg/m3] | mass density, 298.14 K [kg/m3] | mass density, 303.14 K [kg/m3] | mass density, 308.14 K [kg/m3] | mass density, 313.14 K [kg/m3] | mass density, 318.14 K [kg/m3] | mass density, 323.15 K [kg/m3] | refractive index, 288.15 K
[3] | 939.9 | 933.4 | 926.8 | 920.2 | 913.5 | 906.7 | 899.9 | 893 | –
[4] | – | – | – | – | – | – | – | – | 1.365

CCCOC(C)=O [propyl ethanoate]
Conditions | mass density, 298.15 K [kg/m3] | mass density, 308.14 K [kg/m3] | mass density, 313.15 K [kg/m3] | mass density, 318.15 K [kg/m3] | mass density, 323.15 K [kg/m3] | refractive index, 313.15 K | vapor or sublimation pressure, 374 K [kPa]
[1] | – | – | – | – | – | 1.3741 | –
[2] | 882.61 | 871.38 | 865.7 | 860 | 854.26 | – | 101.3

CCCOC(C)=O [propyl ethanoate] + CCCC(=O)[O-].C[NH2+]CCO
x1 = 1
Conditions | mass density, 308.14 K [kg/m3] | mass density, 313.15 K [kg/m3] | mass density, 318.15 K [kg/m3] | mass density, 323.15 K [kg/m3] | refractive index, 313.15 K
[3] | 871.38 | 865.7 | 860 | 854.26 | –
[4] | – | – | – | – | 1.3741
